# Results: patent publication US12162935B2, “Regimens, compositions and methods with capsaicin and TNF-alpha inhibitor” (priority 2018, dated 2024)
# Tests used:
# rat cochlea [1] = experiment: Immunolabelling of mid-modiolar cochlear sections, fluorescent intensity analyses; format: in vivo
# Procedure: Cochleae were perfused with a 4% paraformaldehyde solution, cochleae were decalcified for 7-10 days in 120 mM EDTA, embedded them in paraffin and then sectioned the specimens [Mukherjea et al., 2010]. Slides were deparaffined, rehydrated and then stained with primary and secondary antibodies. Glass coverslips were mounted on the specimens with ProLong Diamond mounting medium. Images were obtained using a Leica confocal microscope (Buffalo Grove, IL).
# Image J software was used to analyze the mean gray area for the various images. These values were then used to quantify the increase or decrease in % fluorescence intensity of the various regions of the samples compared to control.
# rat cochlea [2] = experiment: Cochlear gene expression by q-PCR (cisplatin study); format: in vivo
# TRPV1 = TRPV1 (Homo sapiens, UniProt Q8NER1); experiment: Ca2+ imaging (Fluo-4AM) in HEKVR1 cells; format: cell-based; conditions: capsaicin 2.5 μM
# Excerpt: NE has been linked to immediate increase in ROS generation and persistent oxidative stress in the cochlea2, leading to generation of reactive oxygen species such as: hydroxyl […] (OH^−), superoxide anion (O^2—) and hydrogen peroxide (H2O2).
# Wistar rats = experiment: Restoration of hearing after permanent threshold shifts (Example 10B); format: in vivo, rat; conditions: treatment after PTS at 4 weeks; oral capsaicin 5 mg/kg 3 days, ETA 1 mg/kg s.c. day 2, three weeks
# Procedure: FIG. 23A is a schematic showing the experimental paradigm used in Example 10B. Pre-treatment baseline ABRs were performed in naïve male Wistar rats. The rats were then used either as sham controls (no noise exposure) or exposed-noise (122 dB, OBN centered at 16 kHz for 1 hour). Post noise exposure ABRs were repeated at 4 weeks to establish permanent threshold shifts (PTS). […] Final ABR threshold values were evaluated at week 9 post noise exposure.
# Values shown in FIGS. 23A-23C and otherwise provided with respect to this Example 10B are expressed as the mean±SEM. Statistical significance was analyzed using the ANOVA and Tukey's host hoc analysis.
# TRPV1, sequence (Q8NER1 whole entry, species assumed): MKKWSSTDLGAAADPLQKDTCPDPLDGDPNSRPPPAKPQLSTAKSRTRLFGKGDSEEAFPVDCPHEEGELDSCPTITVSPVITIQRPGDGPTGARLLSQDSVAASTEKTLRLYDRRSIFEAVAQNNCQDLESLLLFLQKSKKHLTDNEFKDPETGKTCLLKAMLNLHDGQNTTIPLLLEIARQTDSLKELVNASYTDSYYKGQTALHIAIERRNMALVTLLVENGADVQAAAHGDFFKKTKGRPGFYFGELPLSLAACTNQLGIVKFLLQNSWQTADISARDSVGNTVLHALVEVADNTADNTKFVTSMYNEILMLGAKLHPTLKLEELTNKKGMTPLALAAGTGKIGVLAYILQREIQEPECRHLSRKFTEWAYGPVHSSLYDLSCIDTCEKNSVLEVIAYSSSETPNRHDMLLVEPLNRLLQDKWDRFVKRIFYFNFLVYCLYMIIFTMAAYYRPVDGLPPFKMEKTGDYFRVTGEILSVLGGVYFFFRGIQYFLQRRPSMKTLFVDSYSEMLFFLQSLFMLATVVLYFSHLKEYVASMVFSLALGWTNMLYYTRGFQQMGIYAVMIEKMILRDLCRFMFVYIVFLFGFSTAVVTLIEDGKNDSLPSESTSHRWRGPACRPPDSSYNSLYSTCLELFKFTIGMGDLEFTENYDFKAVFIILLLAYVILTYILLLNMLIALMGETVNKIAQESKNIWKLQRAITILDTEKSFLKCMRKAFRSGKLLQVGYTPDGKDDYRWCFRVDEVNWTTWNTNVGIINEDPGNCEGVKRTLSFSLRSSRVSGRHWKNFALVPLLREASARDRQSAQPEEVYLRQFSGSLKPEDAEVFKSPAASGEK
structure (smiles),measurement,setting,value
"COc1cc(CNC(=O)CCCC/C=C/C(C)C)ccc1O [capsaicin, 8-methyl-N-vanillyl-trans-6-nonenamide]","TRPV1, NOX3 and iNOS protein expression induced by cisplatin",rat cochlea [1]; capsaicin pre-treatment,significantly decreased
same,CB2 expression in three regions of the cochleae,rat cochlea [1]; capsaicin pretreatment before cisplatin,significantly increased the expression of CB2
same,p-STAT3/p-STAT1 ratio in cochlear regions,"rat cochlea [1]; oral capsaicin pretreatment, compared to cisplatin",significantly increased
same,"CB2 labelling in the OHCs, SGs and SVA",rat cochlea [1]; single agent,increased CB2 labelling in all the three regions to an even greater extent
same,"TRPV1, NOX3 and iNOS labelling in the OHCs, SG and SVA",rat cochlea [1]; single agent vs control,did not produce significant change
same,p-STAT3/p-STAT1 ratio in cochlear regions,"rat cochlea [1]; single agent, 72 h, vs oral PBS",increased the p-STAT3/p-STAT1 ratio in all the three regions of the organ of Corti significantly
same,"expression of TRPV1, NOX3 and iNOS",rat cochlea [2]; TT-capsaicin 24 h prior to cisplatin,significant reduction
same,"expression of TRPV1, NOX3 and iNOS",rat cochlea [2]; capsaicin alone,did not significantly change
same,CB2 receptor expression in the rat cochlea,rat cochlea [2]; oral capsaicin,increased the expression of CB2 receptor
same,"Bax/Bcl-2 ratio, rat cochlea",rat cochlea [2]; oral capsaicin prior to cisplatin,significant decrease
same,"Bax/Bcl-2 ratio, rat cochlea",rat cochlea [2]; single agent (cisplatin or oral capsaicin alone),less than half of that observed following cisplatin alone
same,increase in Ca^2+ over basal fluorescence,TRPV1,741±22%
same,average hearing threshold shifts at 9 weeks,Wistar rats,15-25 dB
